Experimental data published in patent publication US8945825B2, “Homogeneous activity test for determining enzymatic reactions” (Siemens Healthcare Diagnostics Products GmbH, priority 2010, dated 2015).

Assays:
[1] = molecular target: T1, FSAP in plasma (Homo sapiens, UniProt Q14520); assay: Activation of FSAP in citrate plasma with dextran sulfate as cofactor, LOCI signal; type: biochemical; settings: Test buffer with DXS 20 μg/mL
T1 construct: from tissue; host or cells: citrate plasma
Procedure: Activation in the presence of dextran sulfate leads to a different signal height and signal dynamics versus the same sample, with the same FSAP concentration, but without activation by dextran sulfate (Table 4 and FIG. 2). The signal height produced by activation of the FSAP roughly corresponds to the signal of a purified tc-FSAP of equal concentration of 12 μg/mL with an enzyme activity of 1 PEU/mL (not shown).

[2] = molecular target: T2, tc-FSAP (Homo sapiens, UniProt Q14520); assay: tc-FSAP inhibition assay (LOCI signal, peptide substrate IV); type: biochemical; settings: for signal: measured value after 15 minutes
T2 construct: directed against the light chain of FSAP; Two-chain FSAP (tc-FSAP) was prepared, as described by Kannemeier et al; made in house
Procedure: The kinetics of enzyme-inhibitor interaction was investigated by measuring enzyme activity as a function of the amount of inhibitor. In the tc-FSAP inhibition assays, constant amounts of enzyme (tc-FSAP, μg/mL) were preincubated with variable inhibitor concentrations (aprotinin from bovine lung, Fluka), to enable formation of the enzyme-inhibitor complex. Another assay was carried out without preincubation. The remaining protease activity was determined after adding the peptide substrate, as described in example 1.
120 μL test buffer pH 6.3, 10 μL anti-FSAP Chemibeads (200 μg/mL in test buffer), 10 μL purified tc-FSAP (10 μg/mL) and 10 μL test buffer with 0, 4.7 and 47.2 U/mL aprotinin were mixed in DIMENSION VISTA® LOCI® reaction cuvettes. Addition of 10 μL of biotinylated peptide substrate IV in test buffer and 10 μL Sensibeads (400 μg/mL in test buffer) took place without preincubation or after 10 minutes of preincubation at 37° C. The resultant LOCI® signal was measured kinetically, over a period of 15 minutes at 37° C., in a commercially available DIMENSION VISTA® LOCI® measuring unit (Siemens Healthcare Diagnostics Products GmbH) with 200 ms illumination at 680 nm and 1000 ms measuring time at 612 nm.
Another inhibitor used was a monoclonal antibody that inhibits FSAP activity (Siemens Healthcare Diagnostics Products GmbH, MAk No. 1102/570), which is directed against the light chain of FSAP and is formed by the hybridoma cell line DSM ACC2533 (see EP-A2-1334983), similarly to the assay with aprotinin.

T2 sequence (Q14520 314-560 limits assumed): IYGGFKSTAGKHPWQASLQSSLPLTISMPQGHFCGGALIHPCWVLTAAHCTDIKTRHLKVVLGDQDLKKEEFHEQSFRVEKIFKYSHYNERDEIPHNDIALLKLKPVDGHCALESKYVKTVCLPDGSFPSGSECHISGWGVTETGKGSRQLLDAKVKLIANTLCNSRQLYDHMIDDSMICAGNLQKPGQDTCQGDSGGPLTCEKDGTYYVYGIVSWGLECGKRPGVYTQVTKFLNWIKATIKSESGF
T2 sequence (Q14520 24-313 partner limits assumed): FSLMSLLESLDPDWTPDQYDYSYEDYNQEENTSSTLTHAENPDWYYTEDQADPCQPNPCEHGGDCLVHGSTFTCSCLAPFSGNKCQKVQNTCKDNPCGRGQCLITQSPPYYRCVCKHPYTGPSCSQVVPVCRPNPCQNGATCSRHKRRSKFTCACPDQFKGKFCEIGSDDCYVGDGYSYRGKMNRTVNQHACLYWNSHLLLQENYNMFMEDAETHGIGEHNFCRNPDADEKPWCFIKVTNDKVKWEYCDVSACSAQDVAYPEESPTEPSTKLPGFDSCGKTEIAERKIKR
T1 sequence (Q14520 24-313): as the sequence (Q14520 24-313 partner limits assumed) above
T1 sequence (Q14520 314-560): as the sequence (Q14520 314-560 limits assumed) above

Substance	signal ([1]; MW ≧ 500 kDa, peptide 10 μg/mL, incubation time 5 at +37° C.) [kcounts]	signal ([1]; MW ≧ 500 kDa, peptide 10 μg/mL, incubation time 10 at +37° C.) [kcounts]	signal ([1]; MW ≧ 500 kDa, peptide 10 μg/mL, incubation time 15 at +37° C.) [kcounts]	signal ([1]; peptide 0 μg/mL, incubation time 5 at +37° C.) [kcounts]	signal ([1]; peptide 0 μg/mL, incubation time 10 at +37° C.) [kcounts]	signal ([1]; peptide 0 μg/mL, incubation time 15 at +37° C.) [kcounts]	signal ([2]; Aprotinin 4.7 U/mL, with 10 min preincubation) [kcounts]	signal ([2]; Aprotinin 4.7 U/mL, without preincubation) [kcounts]	signal ([2]; Aprotinin 47.3 U/mL, with 10 min preincubation) [kcounts]	signal ([2]; Aprotinin 47.3 U/mL, without preincubation) [kcounts]	Effect on LOCI signal of tc-FSAP (in words) ([2]; mainly after preincubation with tc-FSAP)
dextran sulfate sodium salt [DXS]	50.303	106.500	118.096	1.166	1.220	1.204	–	–	–	–	–
aprotinin	–	–	–	–	–	–	15.03	71.18	11.77	67.8	strong signal-reducing effect
